From US10100006B2, “Compound having immune disease treatment effect and use thereof” (THE CATHOLIC UNIVERSITY OF KOREA INDUSTRY—ACADEMIC …, priority 2014, dated 2018)

How the values were obtained:
[1] = system: IL-17; experiment: Inhibition of IL-17 production in anti-CD3 stimulated spleen cells of mouse, ELISA (Experimental Example 6); type: cell-based; conditions: spleen cells of DBA1/J normal mouse, anti mouse CD3 0.5 μg/ml, compound 200 and 500 μM; FIG. 24
Procedure: (§1) Furthermore, the inventors verified that inhibition degree of IL-17 and TNF-α as the inflammatory cytokines through an ELISA after treating anti mouse CD3 at a concentration of 0.5 μg/ml in the cells obtained from the spleen of a DBA1/J normal mouse group and commonly stimulating each compound at a concentration of 200 and 500 μM, in order to evaluating efficacy in an effect of inhibiting the inflammatory cytokines by targeting the compounds synthesized in Examples of the present invention.

[2] = system: TNF-α; experiment: Inhibition of TNF-α production in anti-CD3 stimulated spleen cells of mouse, ELISA (Experimental Example 6); type: cell-based; conditions: spleen cells of DBA1/J normal mouse, anti mouse CD3 0.5 μg/ml, compound 200 and 500 μM; FIG. 24
Procedure: as §1

[3] = system: TNF-a; experiment: Production of inflammatory cytokines, ELISA: TNF-a, mouse spleen cells; type: cell-based
[4] = system: IL-17; experiment: Production of inflammatory cytokines, ELISA: IL-17, mouse spleen cells; type: cell-based
[5] = system: Total IgG; experiment: Autoantibody production, sandwich ELISA: Total IgG; type: cell-based, mouse
[6] = system: cells in each test group disclosed in Table 3; experiment: Cytotoxicity analysis (MTT assay); type: cell-based, mouse; human; conditions: treatment for each concentration, 72 hrs; normal cells and disease-group cells; compared with control or metformin-treated group
Procedure: In order to verify whether the compounds synthesized in the present invention causes the cytotoxicity in the cells, an MTT assay was performed, target cells were divided to be the number of 2×10^5 cells per well on a 96 well plate, treated with the compounds of the present invention for each concentration, incubated for 72 hrs, added with an MTT solution (0.5% 3-4,5-dimethyl thiazol-2-yl)-2,5-diphenyl-2H-tetrazolium bromide), and incubated for 4 hrs again. Thereafter, absorbance at 540 nm was measured by an enzymelinked immunospecific assay (ELISA) meter to observe the cytotoxicity.
In order to verify whether the novel compounds synthesized in Example 1 have the cytotoxicity, a cell survival rate was verified through the MTT assay by targeting cells in each test group disclosed in Table 3 above. That is, the cells of each test group were divided according to the number of 2×10^5 cells per well and treated with the novel synthesized compounds of the present invention for each concentration, and the cell survival rate was analyzed.

[7] = system: IgG1; experiment: Autoantibody production, sandwich ELISA: IgG1; type: cell-based, mouse
[8] = system: Treg cells; experiment: Treg cell-induced activity, flow cytometry; type: cell-based, mouse; conditions: TCR condition
[9] = system: IgG2; experiment: Autoantibody production, sandwich ELISA: IgG2; type: cell-based, mouse
[10] = system: IFN-r; experiment: Production of inflammatory cytokines, ELISA: IFN-r, lymphocytes of human peripheral blood; type: cell-based; conditions: D: Lymphocytes of human peripheral blood
Procedure: (§2) Further, in a lupus-developed mouse model, a sanroque mouse used in a lupus model in the art was used and the human P.B group was used by obtaining lymphocytes from the human peripheral blood. The isolation of spleen cells and the isolation of lymphocytes from each mouse and the human peripheral blood were performed by a general method which was widely known in the art and the obtained cells were incubated for 72 h under the anti-CD3 0.5 μg/ml stimulation condition, activated, and then used.
(§3) In order to verify whether the novel compounds of the present invention have an effect on inflammation and the production of inflammatory cytokines as cause substances of the immune diseases, the inventors analyzed the production degree of IL-17, IL-6, TNF-α, IFN-γ, MMP-9, and STAT-3 and the expression degree of mRNA of these cytokines by targeting each test group. The production degree of the inflammatory cytokines was analyzed through an ELISA after obtaining a supernatant by targeting cells which were treated with the compound of the present invention and incubated, and particularly, the cells reacted with cytokine-specific antibodies anti-IL-17, anti-IL-6, anti-TNF-α, anti-IFN-γ, anti-MMP-9, and anti-STAT-3 all night at […] and then non-specific binding was blocked with a blocking solution (1% BSA/PBST). Thereafter, each biotinylated antibody was reacted at room temperature for 2 hrs, washed four times, and then reacted at room temperature for 2 hrs after diluting and adding an extravidin-alkaline phosphatase conjugate. Thereafter, a PNPP/DEA solution was added and colored, and then the absorbance was measured at a wavelength of 405 nm.

[11] = system: Th17 cells; experiment: Inhibition of Th17 cells, flow cytometry; type: cell-based, mouse
[12] = system: TNF-a; experiment: Inflammatory gene expression, RT-PCR: TNF-a; type: cell-based, mouse; conditions: control = 1
[13] = system: IL-17; experiment: Production of inflammatory cytokines, ELISA: IL-17, lymphocytes of human peripheral blood; type: cell-based; conditions: D: Lymphocytes of human peripheral blood
Procedure: as §2, §3

[14] = system: IL-6; experiment: Production of inflammatory cytokines, ELISA: IL-6, mouse spleen cells; type: cell-based
[15] = system: STAT3; experiment: Inflammatory gene expression, RT-PCR: STAT3; type: cell-based; conditions: A: Normal mouse cells; control = 1
[16] = system: osteoclasts; experiment: Inhibition of differentiation of osteoclasts, TRAP staining; type: cell-based, mouse; conditions: M-CSF and RANKL
[17] = system: IFN-r; experiment: Production of inflammatory cytokines, ELISA: IFN-r, mouse spleen cells; type: cell-based
[18] = system: MMP-9; experiment: Inflammatory gene expression, RT-PCR: MMP-9; type: cell-based, mouse; conditions: control = 1
[19] = TCR condition, A: Normal mouse cells
[20] = TCR condition, B: Rheumatoid arthritis cells
[21] = Th17 condition (Th17 differentiation condition), A: Normal mouse cells

For `CCN(C(=N)NC(=N)N)c1ccccc1F` [SD-574, N-Ethyl-N-(2-fluorophenyl) biguanide], the “inhibition of IL-17 production” value [1] was “simultaneously inhibiting the IL-17 and the TNF-α” and the “inhibition of TNF-α production” value [2] was “simultaneously inhibiting the IL-17 and the TNF-α”.
With `CCN(C(=N)NC(=N)N)c1ccc(Cl)cc1` [SD-566, N-(4-Chlorophenyl)-N-ethyl-biguanide] the “inhibition of IL-17 production” value [1] was “simultaneously inhibiting the IL-17 and the TNF-α” and the “inhibition of TNF-α production” value [2] was “simultaneously inhibiting the IL-17 and the TNF-α”.
`CCN(C(=N)NC(=N)N)c1ccc(F)cc1F` [SD-283, N-(2,4-Difluorophenyl)-N-ethylbiguanide] was tested, and the TNF-a production ([3]; A: Normal mouse cells) was 0.5 ng/mL, the TNF-a production ([3]; B: Rheumatoid arthritis cells) was 0.3 ng/mL and the TNF-a production ([3]; C: Lupus cells) was 0.6 ng/mL. It also gave an IL-17 production ([4]; A: Normal mouse cells) of 1.6 ng/mL, an IL-17 production ([4]; B: Rheumatoid arthritis cells) of 2.2 ng/mL and an IL-17 production ([4]; C: Lupus cells) of 0.4 ng/mL. For the same compound, the “Total IgG” value ([5]; A: Normal mouse cells) was 2.9 ng/mL, the “Total IgG” value ([5]; B: Rheumatoid arthritis cells) was 49.6 ng/mL and the “Total IgG” value ([5]; C: Lupus cells) was 113.5 ng/mL. The “cytotoxicity (cell survival rate, MTT)” value [6] was “cytotoxicity was not observed”, the IgG1 ([7]; A: Normal mouse cells) was 41 ng/mL and the IgG1 ([7]; B: Rheumatoid arthritis cells) was 135.3 ng/mL. The IgG1 ([7]; C: Lupus cells) was 296.5 ng/mL, the Treg ([8]; A: Normal mouse cells) was 3 and the Treg ([8]; B: Rheumatoid arthritis cells) was 5.1. The Treg ([8]; C: Lupus cells) was 3.3, the IgG2 ([9]; A: Normal mouse cells) was 97.6 ng/mL and the IgG2 ([9]; B: Rheumatoid arthritis cells) was 99.4 ng/mL. It also gave an IgG2 ([9]; C: Lupus cells) of 76 ng/mL, an IFN-r production [10] of 0.1 ng/mL and a Th17 [11, 19] of 1.1. For the same compound, the Th17 [11, 20] was 2.3, the Th17 ([11]; TCR condition, C: Lupus cells) was 0.5 and the Th17 [11, 21] was 0.9. For the same compound, the TNF-a gene expression ([12]; A: Normal mouse cells) was 0.4 gene expression, the TNF-a gene expression ([12]; B: Rheumatoid arthritis cells) was 0.06 gene expression and the TNF-a gene expression ([12]; C: Lupus cells) was 0.1 gene expression. It also gave an IL-17 production [13] of 0.1 ng/mL, an IL-6 production ([14]; A: Normal mouse cells) of 1.4 ng/mL and an IL-6 production ([14]; B: Rheumatoid arthritis cells) of 1.1 ng/mL. The IL-6 production ([14]; C: Lupus cells) was 0.9 ng/mL, the STAT3 gene expression [15] was 1.3 gene expression and the “TRAP + Cell” value ([16]; A: Normal mouse cells) was 123. The “TRAP + Cell” value ([16]; B: Rheumatoid arthritis cells) was 85, the IFN-r production ([17]; A: Normal mouse cells) was 7.2 ng/mL and the IFN-r production ([17]; B: Rheumatoid arthritis cells) was 5.4 ng/mL. The IFN-r production ([17]; C: Lupus cells) was 5.5 ng/mL, the MMP-9 gene expression ([18]; A: Normal mouse cells) was 0.3 gene expression and the MMP-9 gene expression ([18]; B: Rheumatoid arthritis cells) was 1 gene expression. For the same compound, the MMP-9 gene expression ([18]; C: Lupus cells) was 0.04 gene expression.
`CCN(C(=N)NC(=N)N)c1ccccc1` [SD-573, N-Ethyl-N-phenyl biguanide] was tested, and the “inhibition of IL-17 production” value [1] was “simultaneously inhibiting the IL-17 and the TNF-α” and the “inhibition of TNF-α production” value [2] was “simultaneously inhibiting the IL-17 and the TNF-α”.
`CCN(C(=N)NC(=N)N)c1ccc(F)cc1` [SD-282, N-Ethyl-N-(4-fluorophenyl) biguanide] showed a TNF-a production ([3]; A: Normal mouse cells) of 0.4 ng/mL, a TNF-a production ([3]; B: Rheumatoid arthritis cells) of 0.4 ng/mL and a TNF-a production ([3]; C: Lupus cells) of 0.7 ng/mL. The IL-17 production ([4]; A: Normal mouse cells) was 1.7 ng/mL, the IL-17 production ([4]; B: Rheumatoid arthritis cells) was 2.1 ng/mL and the IL-17 production ([4]; C: Lupus cells) was 0.6 ng/mL. For the same compound, the “Total IgG” value ([5]; A: Normal mouse cells) was 0.7 ng/mL, the “Total IgG” value ([5]; B: Rheumatoid arthritis cells) was 60.3 ng/mL and the “Total IgG” value ([5]; C: Lupus cells) was 127.7 ng/mL. The “cytotoxicity (cell survival rate, MTT)” value [6] was “cytotoxicity was not observed”, the IgG1 ([7]; A: Normal mouse cells) was 1 ng/mL and the IgG1 ([7]; B: Rheumatoid arthritis cells) was 218.7 ng/mL. The IgG1 ([7]; C: Lupus cells) was 425.4 ng/mL, the Treg ([8]; A: Normal mouse cells) was 2.5 and the Treg ([8]; B: Rheumatoid arthritis cells) was 4.6. For the same compound, the Treg ([8]; C: Lupus cells) was 2.9, the IgG2 ([9]; A: Normal mouse cells) was 37.1 ng/mL and the IgG2 ([9]; B: Rheumatoid arthritis cells) was 38.3 ng/mL. It also gave an IgG2 ([9]; C: Lupus cells) of 110.9 ng/mL, an IFN-r production [10] of 0.1 ng/mL and a Th17 [11, 19] of 1.2. It also gave a Th17 [11, 20] of 1.5, a Th17 ([11]; TCR condition, C: Lupus cells) of 0.9 and a Th17 [11, 21] of 0.5. For the same compound, the TNF-a gene expression ([12]; A: Normal mouse cells) was 0.07 gene expression, the TNF-a gene expression ([12]; B: Rheumatoid arthritis cells) was 0.06 gene expression and the TNF-a gene expression ([12]; C: Lupus cells) was 0.8 gene expression. It also gave an IL-17 production [13] of 0.1 ng/mL, an IL-6 production ([14]; A: Normal mouse cells) of 1.3 ng/mL and an IL-6 production ([14]; B: Rheumatoid arthritis cells) of 1.3 ng/mL. The IL-6 production ([14]; C: Lupus cells) was 1 ng/mL, the STAT3 gene expression [15] was 0.6 gene expression and the “TRAP + Cell” value ([16]; A: Normal mouse cells) was 157. The “TRAP + Cell” value ([16]; B: Rheumatoid arthritis cells) was 89, the IFN-r production ([17]; A: Normal mouse cells) was 3.3 ng/mL and the IFN-r production ([17]; B: Rheumatoid arthritis cells) was 2.9 ng/mL. It also gave an IFN-r production ([17]; C: Lupus cells) of 7.6 ng/mL, an MMP-9 gene expression ([18]; A: Normal mouse cells) of 0.1 gene expression and an MMP-9 gene expression ([18]; B: Rheumatoid arthritis cells) of 0.08 gene expression. For the same compound, the MMP-9 gene expression ([18]; C: Lupus cells) was 1.3 gene expression.
For `CCN(C(=N)NC(=N)N)c1ccc(Br)cc1` [SD-567, N-(4-Bromophenyl)-N-ethyl-biguanide], the “inhibition of IL-17 production” value [1] was “simultaneously inhibiting the IL-17 and the TNF-α” and the “inhibition of TNF-α production” value [2] was “simultaneously inhibiting the IL-17 and the TNF-α”.
For `N=C(N)NC(=N)Nc1ccc(Br)cc1` [SD-563, N-(4-Bromophenyl) biguanide], the “inhibition of IL-17 production” value [1] was “simultaneously inhibiting the IL-17 and the TNF-α” and the “inhibition of TNF-α production” value [2] was “simultaneously inhibiting the IL-17 and the TNF-α”.
In the case of `CCCN(C(=N)NC(=N)N)c1ccc(F)cc1F` [SD-580, N-(2,4-Difluorophenyl)-N-propylbiguanide], the “inhibition of IL-17 production” value [1] is reported as “simultaneously inhibiting the IL-17 and the TNF-α” and the “inhibition of TNF-α production” value [2] is reported as “simultaneously inhibiting the IL-17 and the TNF-α”.
For `N=C(N)NC(=N)Nc1cccc(Cl)c1` [SD-564, N-(3-Chlorophenyl) biguanide], the “inhibition of IL-17 production” value [1] was “simultaneously inhibiting the IL-17 and the TNF-α” and the “inhibition of TNF-α production” value [2] was “simultaneously inhibiting the IL-17 and the TNF-α”.
For `CN(C(=N)NC(=N)N)c1ccc(F)cc1F` [SD-284, N-(2,4-Difluorophenyl)-N-methylbiguanide], the TNF-a production ([3]; Table 6, normal mouse cells) was 0.5 ng/mL, the IL-17 production ([4]; Table 6, normal mouse cells) was 6.5 ng/mL and the “cytotoxicity (cell survival rate, MTT)” value [6] was “cytotoxicity was not observed”. The IFN-r production [10] was 0.08 ng/mL, the Th17 [11, 21] was 2 and the IL-17 production [13] was 0.1 ng/mL. It also gave an IL-6 production ([14]; Table 6, normal mouse cells) of 0.7 ng/mL and an IFN-r production ([17]; Table 6, normal mouse cells) of 4.9 ng/mL.
